Results from PubChem BioAssay (NCI).
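Five concentrations, 48 hours, 96-well plates. At the GI50, growth is halved. The concentration for full growth arrest is given as TGI.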

Tests used:
Assay in all cases: inhibition of tumour cell growth, NCI panel, 48 h
IGROV1 ovarian = system: IGROV1 ovarian
SF-295 CNS = system: SF-295 CNS
HOP-62 NSCLC = system: HOP-62 NSCLC
786-0 renal = system: 786-0 renal
SNB-19 CNS = system: SNB-19 CNS
SR leukemia = system: SR leukemia
NCI-H23 lung = system: NCI-H23 lung
HCC-2998 colon = system: HCC-2998 colon
PC-3 prostate = system: PC-3 prostate
NCI-H522 lung = system: NCI-H522 lung

| Structure (SMILES) | GI50 (IGROV1 ovarian) [µM] | TGI (IGROV1 ovarian) [µM] | GI50 (SF-295 CNS) [µM] | TGI (SF-295 CNS) [µM] | GI50 (HOP-62 NSCLC) [µM] | TGI (HOP-62 NSCLC) [µM] | GI50 (786-0 renal) [µM] | TGI (786-0 renal) [µM] | GI50 (SNB-19 CNS) [µM] | TGI (SNB-19 CNS) [µM] | GI50 (SR leukemia) [µM] | TGI (SR leukemia) [µM] | GI50 (NCI-H23 lung) [µM] | TGI (NCI-H23 lung) [µM] | GI50 (HCC-2998 colon) [µM] | TGI (HCC-2998 colon) [µM] | GI50 (PC-3 prostate) [µM] | TGI (PC-3 prostate) [µM] | GI50 (NCI-H522 lung) [µM] | TGI (NCI-H522 lung) [µM] |
| --- | --- | --- | --- | --- | --- | --- | --- | --- | --- | --- | --- | --- | --- | --- | --- | --- | --- | --- | --- | --- |
| C=CC[C@@H]1/C=C(\C)C[C@H](C)C[C@H](OC)[C@H]2O[C@@](O)(C(=O)C(=O)N3CCCC[C@H]3C(=O)O[C@H](/C(C)=C/C3CC[C@@H](O)[C@H](OC)C3)[C@H](C)[C@@H](O)CC1=O)[C@H](C)C[C@@H]2OC (some centres not stated) | 17.3 | 41 | 14.6 | 31.9 | 16.2 | 31.1 | 17.3 | 35.1 | 15.6 | 30.4 | 14.1 | 39.8 | 16.3 | 32.7 | 18.8 | 34.7 | 12.1 | 25.7 | 12.7 | 27 |
| Cc1cc2cc3cc(C)c(N)cc3[n+](C)c2cc1N | 2.66 | 15.3 | 1.56 | 11.4 | 0.518 | 4.21 | 2.6 | 11.5 | 1.13 | 12.4 | 1.99 | 8.17 | 1.09 | 5.11 | 1.45 | 4.26 | 1.7 | 10.3 | 3.24 | 9.31 |
| O=C1CCC(N2Cc3c(C#CCCCNC(=O)c4cc5c(o4)C(=O)c4ccccc4C5=O)cccc3C2=O)C(=O)N1 (configuration not stated) | 4.03 | 17.2 | 2.84 | 8.03 | 2.89 | 9.32 | 15.3 | 32 | 2.65 | 8.35 | 3.15 | 14.5 | 1.58 | 4.44 | 2.63 | 6.63 | 2.95 | 56.2 | 1.98 | 4.61 |
| Cc1ccc(-c2nc(N)c(C#N)c3c2CCOc2c-3ccc3ccccc23)cc1 | 0.359 | > 100 | 0.144 | 1.87 | 0.313 | 7.93 | 0.363 | 12.7 | 2.08 | > 100 | 0.0882 | > 100 | 0.521 | 66.7 | 0.142 | – | 0.186 | 7.51 | 0.507 | > 100 |
| CC(C(=O)O)/C(=C\c1ccc2c(c1)OCO2)C(=O)O (configuration not stated) | – | > 100 | – | > 100 | – | > 100 | – | > 100 | – | > 100 | – | > 100 | – | > 100 | – | > 100 | – | > 100 | – | > 100 |
| CSC1=Nc2c(c(C)c(C)n2COC(CO)CO)C2=NC(=O)CC(C)N12 (configuration not stated) | > 100 | > 100 | > 100 | > 100 | > 100 | > 100 | > 100 | > 100 | > 100 | > 100 | > 100 | > 100 | > 100 | > 100 | > 100 | > 100 | > 100 | > 100 | > 100 | > 100 |
| Brc1ccccc1C=NC12CC3CC(CC(C3)C1)C2 | – | > 100 | – | > 100 | – | > 100 | – | > 100 | – | > 100 | – | > 28.2 | – | > 100 | – | > 100 | – | > 100 | – | > 100 |
| CC(=O)OC1Oc2cc(C)c(C)cc2-c2oc(=O)c(-c3ccc(F)cc3)cc21 (configuration not stated) | 7.94 | 85.2 | 3.92 | > 100 | 12.9 | 72.5 | 9.55 | > 100 | 11.6 | > 100 | 1.21 | 5.22 | 4.41 | 42.7 | 3.97 | 28.2 | 9.67 | 39.8 | 4.53 | 19 |
| Clc1ccc(C2=NN[C@H](c3cn(-c4ccccc4)nc3-c3ccccc3)C2)cc1 | 6.28 | 33.2 | 3.36 | 13.2 | 2.31 | 5.76 | 4.88 | 18.6 | 7.08 | 24.8 | 11.4 | > 100 | 5.27 | 23.4 | 11.4 | > 100 | 3.68 | 14.6 | 4.64 | 28.4 |
| S=C(c1ccc2c(c1)OCO2)N1CCN(c2cccc(Cl)c2)CC1 | 3.88 | > 100 | 0.387 | > 40.9 | 3.27 | > 59.2 | 1.22 | > 59.6 | 3.13 | > 100 | 0.382 | – | 2.7 | > 100 | 1.27 | 16.4 | 4.08 | > 100 | 0.382 | – |
| N#Cc1c(N)nc(NCc2ccccc2)c(C#N)c1-c1ccccc1Cl | 5.08 | 41.1 | 12.6 | 76.2 | 4.47 | 18 | 13.4 | 36.2 | 23.4 | > 100 | 10.8 | 32.8 | 17.5 | > 100 | > 100 | > 100 | 12 | > 100 | 12.6 | 55 |
| CCN(CC)CCCCNc1ncc2cc(-c3cc(OC)cc(OC)c3)c(NC(=O)NC(C)(C)C)nc2n1 | 3.64 | 16.3 | 3.59 | 10.3 | 12.1 | 27.2 | 5.42 | 19.3 | 13.7 | 28.7 | 2.11 | 5.68 | 11.1 | 30.1 | 12.7 | 26 | 7.3 | 26 | 6.45 | 18.4 |
| O=C(NCCNc1nccc(-c2c(-c3ccc(F)cc3)nc3sccn23)n1)c1ccccc1 | 3.48 | 24.1 | 6.97 | 27.5 | 16.9 | 34.7 | 15.3 | > 100 | 11.9 | > 100 | 16.7 | 47.3 | 10.9 | 45.1 | 17.4 | 40.1 | 10.8 | 89.2 | 11.1 | 27.4 |
